In ChEMBL document CHEMBL1201861, “Genomics of Drug Sensitity in Cancer screening data, Wellcome Trust Sanger Institute”:

Experiments:
Assay in all cases: cells
D-392MG = format: functional, cell-based, Homo sapiens; details: Homo sapiens, D-392MG
DK-MG = format: functional, cell-based, Homo sapiens; details: Homo sapiens, DK-MG;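 further: growth inhibition of DK-MG cells, read out with a cell viability assay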
Description: SANGER: Inhibition of human DK-MG cell growth in a cell viability assay.

EKVX = format: functional, cell-based, Homo sapiens; details: Homo sapiens, EKVX;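 further: growth inhibition of human EKVX cells, read out with a cell viability assay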
Description: SANGER: Inhibition of human EKVX cell growth in a cell viability assay.

ES1 = format: functional, cell-based, Homo sapiens; details: Homo sapiens, ES1;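 further: growth inhibition of ES1 cells, read out with a cell viability assay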
Description: SANGER: Inhibition of human ES1 cell growth in a cell viability assay.

GCIY = format: functional, cell-based, Homo sapiens; details: Homo sapiens, GCIY;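 further: growth inhibition of the human GCIY cell line, read out by a cell viability assay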
Description: SANGER: Inhibition of human GCIY cell growth in a cell viability assay.

GCT = format: functional, cell-based, Homo sapiens; details: Homo sapiens, GCT;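 further: GCT cell line proliferation inhibition, read out with a cell viability assay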
Description: SANGER: Inhibition of human GCT cell growth in a cell viability assay.

HCC1187 = format: functional, cell-based, Homo sapiens; details: Homo sapiens, HCC1187;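 further: growth inhibition of HCC1187 cells, read out with a cell viability assay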
Description: SANGER: Inhibition of human HCC1187 cell growth in a cell viability assay.

HN = format: functional, cell-based, Homo sapiens; details: Homo sapiens, HN
Description: SANGER: Inhibition of human HN cell growth in a cell viability assay.

HSC-3 = format: functional, cell-based, Homo sapiens; details: Homo sapiens, HSC-3
Description: SANGER: Inhibition of human HSC-3 cell growth in a cell viability assay.

HT1197 = format: functional, cell-based, Homo sapiens, HT-1197; details: Homo sapiens, HT1197
Description: SANGER: Inhibition of human HT-1197 cell growth in a cell viability assay.

HT-3 = format: functional, cell-based, Homo sapiens; details: Homo sapiens, HT-3;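 further: growth inhibition measured with a cell viability readout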
Description: SANGER: Inhibition of human HT-3 cell growth in a cell viability assay.

KM12 = format: functional, cell-based, Homo sapiens; details: Homo sapiens, KM12;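 further: KM12 cell growth inhibition, read out with a cell viability assay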
Description: SANGER: Inhibition of human KM12 cell growth in a cell viability assay.

KYSE-180 = format: functional, cell-based, Homo sapiens; details: Homo sapiens, KYSE-180;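 further: growth inhibition of KYSE-180 cells, read out with a cell viability assay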
Description: SANGER: Inhibition of human KYSE-180 cell growth in a cell viability assay.

KYSE-520 cell line = format: functional, cell-based, Homo sapiens; details: Homo sapiens, KYSE-520;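 further: growth inhibition of human KYSE-520 cells, read out with a viability assay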
Description: SANGER: Inhibition of human KYSE-520 cell growth in a cell viability assay.

L-428 = format: functional, cell-based; details: Homo sapiens
Description: SANGER: Inhibition of human L-428 cell growth in a cell viability assay.

LAN-6 = format: functional, cell-based, Homo sapiens; details: Homo sapiens, LAN-6;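 further: growth inhibition of LAN-6 cells, determined with a cell viability assay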
Description: SANGER: Inhibition of human LAN-6 cell growth in a cell viability assay.

LB1047-RCC = format: functional, cell-based, Homo sapiens; details: Homo sapiens, LB1047-RCC;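 further: inhibition of cell growth, determined with a cell viability assay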
Description: SANGER: Inhibition of human LB1047-RCC cell growth in a cell viability assay.

LU-99A = format: functional, cell-based, Homo sapiens; details: Homo sapiens, LU-99A;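 further: growth inhibition of LU-99A cells, read out with a cell viability assay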
Description: SANGER: Inhibition of human LU-99A cell growth in a cell viability assay.

ME-180 = format: functional, cell-based; details: Homo sapiens;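 further: cell viability assay measuring growth inhibition of ME-180 cells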
Description: SANGER: Inhibition of human ME-180 cell growth in a cell viability assay.

MEG-01 = format: functional, cell-based; details: Homo sapiens;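 further: growth inhibition of MEG-01 cells, read out by a cell viability assay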
Description: SANGER: Inhibition of human MEG-01 cell growth in a cell viability assay.

MOLT-16 = format: functional, cell-based; details: Homo sapiens;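 further: growth inhibition of human MOLT-16 cells, read out with a cell viability assay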
Description: SANGER: Inhibition of human MOLT-16 cell growth in a cell viability assay.

NCI-H1770 = format: functional, cell-based; details: Homo sapiens;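 further: growth inhibition of NCI-H1770 cells determined with a viability readout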
Description: SANGER: Inhibition of human NCI-H1770 cell growth in a cell viability assay.

NCI-H1838 = format: functional, cell-based, Homo sapiens; details: Homo sapiens, NCI-H1838;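 further: growth inhibition of NCI-H1838 cells, determined with a cell viability readout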
Description: SANGER: Inhibition of human NCI-H1838 cell growth in a cell viability assay.

NCI-H2052 = format: functional, cell-based, Homo sapiens; details: Homo sapiens, NCI-H2052;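 further: growth inhibition of NCI-H2052 cells, read out with a cell viability assay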
Description: SANGER: Inhibition of human NCI-H2052 cell growth in a cell viability assay.

NCI-H226 = format: functional, cell-based, Homo sapiens; details: Homo sapiens, NCI-H226;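 further: cell viability read-out used to gauge growth inhibition of the cells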
Description: SANGER: Inhibition of human NCI-H226 cell growth in a cell viability assay.

NCI-H520 = format: functional, cell-based, Homo sapiens; details: Homo sapiens, NCI-H520;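 further: growth inhibition of NCI-H520 cells, measured by a cell viability assay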
Description: SANGER: Inhibition of human NCI-H520 cell growth in a cell viability assay.

NCI-H526 = format: functional, cell-based; details: Homo sapiens;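 further: growth inhibition of the human NCI-H526 cell line, measured by a cell viability assay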
Description: SANGER: Inhibition of human NCI-H526 cell growth in a cell viability assay.

NCI-H82 = format: functional, cell-based; details: Homo sapiens;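 further: growth inhibition of NCI-H82 cells, measured with a cell viability readout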
Description: SANGER: Inhibition of human NCI-H82 cell growth in a cell viability assay.

OAW-28 = format: functional, cell-based, Homo sapiens; details: Homo sapiens, OAW-28;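 further: growth inhibition of OAW-28 cells, read out with a cell viability assay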
Description: SANGER: Inhibition of human OAW-28 cell growth in a cell viability assay.

OE19 = format: functional, cell-based, Homo sapiens; details: Homo sapiens, OE19;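 further: growth inhibition of OE19 cells, measured through a cell viability read-out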
Description: SANGER: Inhibition of human OE19 cell growth in a cell viability assay.

Panc1005 = format: functional, cell-based, Homo sapiens; details: Homo sapiens, Panc1005;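 further: growth inhibition of human PANC-10-05 cells, measured by a cell viability assay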
Description: SANGER: Inhibition of human PANC-10-05 cell growth in a cell viability assay.

RERF-LC-MS = format: functional, cell-based, Homo sapiens; details: Homo sapiens, RERF-LC-MS;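 further: growth inhibition of human RERF-LC-MS cells, read out by a cell viability assay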
Description: SANGER: Inhibition of human RERF-LC-MS cell growth in a cell viability assay.

SF-295 = format: functional, cell-based, Homo sapiens; details: Homo sapiens, SF-295; read-out: IC50;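 further: growth inhibition of SF-295 cells, read out with a cell viability assay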
Description: SANGER: Inhibition of human SF295 cell growth in a cell viability assay.

SK-MEL3 = format: functional, cell-based, Homo sapiens, SK-MEL-3; details: Homo sapiens, SK-MEL3;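 further: growth inhibition of human SK-MEL-3 cells, read out with a cell viability assay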
Description: SANGER: Inhibition of human SK-MEL-3 cell growth in a cell viability assay.

SK-N-FI = format: functional, cell-based, Homo sapiens; details: Homo sapiens, SK-N-FI;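 further: cell viability assay measuring growth inhibition of human SK-N-FI cells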
Description: SANGER: Inhibition of human SK-N-FI cell growth in a cell viability assay.

SNB-75 = format: functional, cell-based, Homo sapiens; details: Homo sapiens, SNB-75;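 further: cell viability assay measuring growth inhibition of human SNB-75 cells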
Description: SANGER: Inhibition of human SNB75 cell growth in a cell viability assay.

SW-620 = format: functional, cell-based, Homo sapiens; details: Homo sapiens, SW-620;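 further: growth inhibition of human SW-620 cells, measured by a cell viability assay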
Description: SANGER: Inhibition of human SW620 cell growth in a cell viability assay.

SW948 = format: functional, cell-based, Homo sapiens; details: Homo sapiens, SW948;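 further: growth inhibition of SW948 cells, read out with a cell viability assay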
Description: SANGER: Inhibition of human SW948 cell growth in a cell viability assay.

T84 = format: functional, cell-based, Homo sapiens; details: Homo sapiens, T84;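 further: growth inhibition measured with a cell viability readout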
Description: SANGER: Inhibition of human T84 cell growth in a cell viability assay.

639-V = format: functional, cell-based, Homo sapiens; details: Homo sapiens, 639-V;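 further: growth inhibition of 639-V cells, read out with a cell viability assay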
Description: SANGER: Inhibition of human 639-V cell growth in a cell viability assay.

A388 = format: functional, cell-based, Homo sapiens; details: Homo sapiens, A388;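 further: growth inhibition of human A388 cells, read out with a cell viability assay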
Description: SANGER: Inhibition of human A388 cell growth in a cell viability assay.

A-431 = format: functional, cell-based, Homo sapiens; details: Homo sapiens, A-431;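 further: growth inhibition of A-431 cells, determined with a cell viability read-out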
Description: SANGER: Inhibition of human A431 cell growth in a cell viability assay.

A673 = format: functional, cell-based, Homo sapiens; details: Homo sapiens, A673;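 further: growth inhibition of human A673 cells, read out through a cell viability assay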
Description: SANGER: Inhibition of human A673 cell growth in a cell viability assay.

BPH-1 = format: functional, cell-based, Homo sapiens; details: Homo sapiens, BPH-1;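 further: cell viability assay measuring growth inhibition of human BPH-1 cells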
Description: SANGER: Inhibition of human BPH-1 cell growth in a cell viability assay.

C8166 = format: functional, cell-based; details: Homo sapiens;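 further: growth inhibition of human C8166 cells measured by a cell viability assay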
Description: SANGER: Inhibition of human C8166 cell growth in a cell viability assay.

U-118-MG = format: functional, cell-based, Homo sapiens; details: Homo sapiens, U-118-MG
Description: SANGER: Inhibition of human U-118-MG cell growth in a cell viability assay.

U-87 MG = format: functional, cell-based, U-87MG ATCC; details: Homo sapiens;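 further: growth inhibition of the cells measured with a viability assay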
Description: SANGER: Inhibition of human U-87-MG cell growth in a cell viability assay.

UACC-893 = format: functional, cell-based, Homo sapiens; details: Homo sapiens, UACC-893
Description: SANGER: Inhibition of human UACC-893 cell growth in a cell viability assay.

CAMA-1 = format: functional, cell-based, Homo sapiens; details: Homo sapiens, CAMA-1;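 further: growth inhibition of CAMA-1 cells, read out with a cell viability assay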
Description: SANGER: Inhibition of human CAMA-1 cell growth in a cell viability assay.

O=C1N=C(NCc2cccs2)S/C1=C\c1ccc2ncccc2c1
IC50 (D-392MG): > 5 µM | IC50 (DK-MG): > 5 µM | IC50 (EKVX): > 5 µM | IC50 (ES1): > 5 µM | IC50 (GCIY): > 5 µM | IC50 (GCT): > 5 µM | IC50 (HCC1187): > 5 µM | IC50 (HN): > 5 µM | IC50 (HSC-3): > 5 µM | IC50 (HT1197): > 5 µM | IC50 (HT-3): > 5 µM | IC50 (KM12): > 5 µM | IC50 (KYSE-180): > 5 µM | IC50 (KYSE-520 cell line): > 5 µM | IC50 (L-428): > 5 µM | IC50 (LAN-6): > 5 µM | IC50 (LB1047-RCC): 3.24 µM | IC50 (LU-99A): > 5 µM | IC50 (ME-180): > 5 µM | IC50 (MEG-01): > 5 µM | IC50 (MOLT-16): > 5 µM | IC50 (NCI-H1770): > 5 µM | IC50 (NCI-H1838): > 5 µM | IC50 (NCI-H2052): > 5 µM | IC50 (NCI-H226): > 5 µM | IC50 (NCI-H520): > 5 µM | IC50 (NCI-H526): > 5 µM | IC50 (NCI-H82): > 5 µM | IC50 (OAW-28): > 5 µM | IC50 (OE19): > 5 µM | IC50 (Panc1005): > 5 µM | IC50 (RERF-LC-MS): > 5 µM | IC50 (SF-295): > 5 µM | IC50 (SK-MEL3): > 5 µM | IC50 (SK-N-FI): > 5 µM | IC50 (SNB-75): > 5 µM | IC50 (SW-620): > 5 µM | IC50 (SW948): > 5 µM | IC50 (T84): > 5 µM | IC50 (639-V): 2.28 µM | IC50 (A388): > 5 µM | IC50 (A-431): > 5 µM | IC50 (A673): > 5 µM | IC50 (BPH-1): 2.97 µM | IC50 (C8166): > 5 µM | IC50 (U-118-MG): > 5 µM | IC50 (U-87 MG): > 5 µM | IC50 (UACC-893): > 5 µM | IC50 (CAMA-1): > 5 µM

COc1ccc(-c2ccc3c(N4CCOC[C@@H]4C)nc(N4CCOC[C@@H]4C)nc3n2)cc1CO [AZD-8055]
IC50 (D-392MG): > 2 µM | IC50 (DK-MG): > 2 µM | IC50 (EKVX): 1.14 µM | IC50 (ES1): 0.555 µM | IC50 (GCIY): 0.458 µM | IC50 (GCT): 1.34 µM | IC50 (HCC1187): > 2 µM | IC50 (HN): 1.9 µM | IC50 (HSC-3): 0.429 µM | IC50 (HT1197): > 2 µM | IC50 (HT-3): 1.66 µM | IC50 (KM12): 1.8 µM | IC50 (KYSE-180): 1.11 µM | IC50 (KYSE-520 cell line): > 2 µM | IC50 (L-428): > 2 µM | IC50 (LAN-6): > 2 µM | IC50 (LB1047-RCC): 0.34 µM | IC50 (LU-99A): 0.776 µM | IC50 (ME-180): 0.147 µM | IC50 (MEG-01): > 2 µM | IC50 (MOLT-16): 0.938 µM | IC50 (NCI-H1770): 0.802 µM | IC50 (NCI-H1838): > 2 µM | IC50 (NCI-H2052): 1.86 µM | IC50 (NCI-H226): > 2 µM | IC50 (NCI-H520): 0.348 µM | IC50 (NCI-H526): > 2 µM | IC50 (NCI-H82): > 2 µM | IC50 (OAW-28): > 2 µM | IC50 (OE19): > 2 µM | IC50 (Panc1005): > 2 µM | IC50 (RERF-LC-MS): > 2 µM | IC50 (SF-295): 0.685 µM | IC50 (SK-MEL3): 1.25 µM | IC50 (SK-N-FI): 1.56 µM | IC50 (SNB-75): 1.75 µM | IC50 (SW-620): > 2 µM | IC50 (SW948): > 2 µM | IC50 (T84): > 2 µM | IC50 (639-V): > 2 µM | IC50 (A388): > 2 µM | IC50 (A-431): 0.831 µM | IC50 (A673): > 2 µM | IC50 (BPH-1): 0.884 µM | IC50 (C8166): > 2 µM | IC50 (U-118-MG): 1.85 µM | IC50 (U-87 MG): > 2 µM | IC50 (UACC-893): 0.929 µM | IC50 (CAMA-1): 0.622 µM

COc1ccc(C2=N[C@@H](c3ccc(Cl)cc3)[C@@H](c3ccc(Cl)cc3)N2C(=O)N2CCNC(=O)C2)c(OC(C)C)c1 [NUTLIN-3]
IC50 (D-392MG): > 8 µM | IC50 (DK-MG): 2.62 µM | IC50 (EKVX): > 8 µM | IC50 (ES1): > 8 µM | IC50 (GCIY): > 8 µM | IC50 (GCT): > 8 µM | IC50 (HCC1187): > 8 µM | IC50 (HN): > 8 µM | IC50 (HSC-3): > 8 µM | IC50 (HT1197): > 8 µM | IC50 (HT-3): > 8 µM | IC50 (KM12): > 8 µM | IC50 (KYSE-180): > 8 µM | IC50 (KYSE-520 cell line): > 8 µM | IC50 (L-428): > 8 µM | IC50 (LAN-6): > 8 µM | IC50 (LB1047-RCC): > 8 µM | IC50 (LU-99A): > 8 µM | IC50 (ME-180): > 8 µM | IC50 (MEG-01): > 8 µM | IC50 (MOLT-16): 1.79 µM | IC50 (NCI-H1770): > 8 µM | IC50 (NCI-H1838): > 8 µM | IC50 (NCI-H2052): > 8 µM | IC50 (NCI-H226): > 8 µM | IC50 (NCI-H520): > 8 µM | IC50 (NCI-H526): > 8 µM | IC50 (NCI-H82): > 8 µM | IC50 (OAW-28): > 8 µM | IC50 (OE19): > 8 µM | IC50 (Panc1005): > 8 µM | IC50 (RERF-LC-MS): > 8 µM | IC50 (SF-295): > 8 µM | IC50 (SK-MEL3): > 8 µM | IC50 (SK-N-FI): > 8 µM | IC50 (SNB-75): > 8 µM | IC50 (SW-620): > 8 µM | IC50 (SW948): > 8 µM | IC50 (T84): > 8 µM | IC50 (639-V): > 8 µM | IC50 (A388): > 8 µM | IC50 (A-431): > 8 µM | IC50 (A673): > 8 µM | IC50 (BPH-1): > 8 µM | IC50 (C8166): > 8 µM | IC50 (U-118-MG): > 8 µM | IC50 (U-87 MG): > 8 µM | IC50 (UACC-893): > 8 µM | IC50 (CAMA-1): > 8 µM
